Test results from patent US20150315179A1, “COMPOUNDS AND METHODS OF TREATING NEUROLOGICAL DISORDERS” (Torrey Pines Institute For Molecular Studies, priority 2014, published 2015).

Experiments:
[1] = system: Aβ42 levels, NT2 cells stably expressing APP751; assay: Aβ42 ELISA, NT2 stable cells; type: cell-based, human
Description: (§1) (5). To confirm the effect of THPI-244 on sAPPα levels in a neuronal cell line and by a tertiary assay, we exposed human Neuron-committed Teratocarcinoma cell line (NT2) stably expressing human APP751 to different concentrations of THPI-244 for 24 h and compared with that of Bryostatin, a classical activator of PKC known to stimulate sAPPα release. […] Levels of sAPPα were measured by ELISA using commercially available kit (cat #27734, IBL-America, Minneapolis, Minn., USA). […] Similar biphasic effect of Bryostatin was confirmed for Aβ42 also, measured again in NT2 stable cells by ELISA (cat # KHB3441, Life Technologies, Grand Island, N.Y., USA). Consistent with sAPPα, THPI-244 decreased Aβ42 levels dose-dependently starting from 50 nM (28%, p<0.05) to 2000 nM (64%, p<0.001) (n=4 independent experiments) (FIG. 1.7). Thus THPI-244 increased non-amyloidogenic processing of APP in NT2 cells.

[2] = system: TrkA; assay: Mouse brain lysate immunoblot, TrkA; type: in vivo; settings: i.p. 100 mg/kg for 5 days, brain lysates
Description: FIGS. 9.2A and B illustrate that THPI-244 increases TrkA and sAPPα in the mouse brain. FIG. 9.2A illustrates that THPI-244 was administered to mice by i.p. injections at 100 mg/kg body weight for 5 days and the brain lysates were subjected to immunoblots. Specific antibodies were used to detect TrkA and sAPPα. […] Data are mean±SEM, n=3*, p<0.05, ***, p<0.001.

[3] = system: sAPPα release, NT2 cells stably expressing human APP751; assay: sAPPα ELISA, NT2 cells expressing APP751; type: cell-based; settings: 24 h
Description: as §1

[4] = system: human primary neurons; assay: MTT cytotoxicity, human primary neurons; type: cell-based
From the text: (4). Toxicity is another crucial limitation for successful drug development as evidenced by recent failure of γ-secretase inhibitors at the clinical trials due to cytotoxicity (Cole, S L and Vassar, R, 2007, Mol. Neurodeg. 2, 22-47; Doody R S, et al. 2013. N. Eng. J. Med. 369, 341-350). Therefore we measured cytotoxicity by very sensitive MTT assay as described previously (Hayes, C D., et al. 2013, BMC Medicine. 26, 11.81; 23; Hayes, C D., et al., 2012, PLoS One 7, e45841) in human primary neurons obtained from a commercial source (cat #1520, ScienCell, Carlsbad, Calif., USA) and fibroblasts derived directly from A D patients (cat# AG06263C, Coriell Institute Cell repository supported by NINDS, NIH). […] We directly used human neurons for toxicity studies so as to reduce the chances of future failure at a later stage due to toxicity.

[5] = system: sAPPα levels in conditioned medium of NT2 cells; assay: sAPPα immunoblot, NT2 cells with or without TrkA inhibitor; type: cell-based, human; settings: 24 h
Description: (3). THPI-244 increases TrkA receptor levels independent of protein kinase C (PKC). Next to clarify whether increased sAPPα levels depends on increased TrkA activation, NT2 cells were treated with THPI-244 with or without TrkA inhibitor (cat # GW 441756, Tocris Bioscience) at 50 nM final concentration. After 24 h, sAPPα levels were quantified from the conditioned medium by immunoblots. […] We next wanted to address whether increased TrkA protein levels by THPI-244 depends on PKC since PKC activators are well-known to induce sAPPα secretion (Etcheberringaray, R., et al., 2004, PNAS, 101, 11141-11146). NT2 cells were similarly treated with THPI-244 at 100 nM with or without PKC inhibitor (GF 109203, cat #0741, Tocris Bioscience) at 1.0 nM and TrkA protein levels were quantified by immunoblots as shown in FIG. 1.10 (right). […] Thus increased sAPPα level by THPI-244 is through upregulation of TrkA receptor independent of PKC.

SMILES: O=C(Cc1ccccc1)N[C@H](CNc1nc(CN2CCN(C(=O)Cc3ccccc3)CC2)cs1)c1ccccc1 [THPI-244]
- decrease of Aβ42 levels ([1]; 50 nM): 28%
- decrease of Aβ42 levels ([1]; 2000 nM): 64%
- concentration from which Aβ42 decrease is significant ([1]; ELISA): 50 nM
- increase of TrkA [2]: 78%
- concentration from which sAPPα increase is significant [3]: 50 nM
- concentration from which cytotoxicity is significant ([4]; MTT, 24 h exposure, human primary neurons): 40 µM
- therapeutic window ([4]; human primary neurons and AD fibroblasts): 800
- sAPPα levels ([5]; THPI-244 100 nM with TrkA inhibitor GW 441756 50 nM): 132%
- sAPPα levels ([5]; THPI-244 100 nM): 245%
